Reference: PubChem BioAssay (NCI)
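Step 1: Grow cells in 96-well plates. Step 2: Expose to compound for 48 hours at 5 concentrations. Step 3: Interpolate endpoints linearly; if unreached, use highest concentration. At the TGI there is no net growth.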

What was measured:
Test in all cases: inhibition of tumour cell growth, NCI panel, 48 h
[1] = test system: COLO 205 colon
[2] = test system: SK-MEL-5 melanoma
[3] = test system: SNB-19 CNS
[4] = test system: HT29 colon
[5] = test system: SR leukemia
[6] = test system: RXF 393 renal
[7] = test system: NCI/ADR-RES ovarian
[8] = test system: HCC-2998 colon
[9] = test system: PC-3 prostate
[10] = test system: SK-MEL-2 melanoma
[11] = test system: HS 578T breast
[12] = test system: MOLT-4 leukemia
[13] = test system: SK-MEL-28 melanoma
[14] = test system: EKVX NSCLC
[15] = test system: M14 melanoma
[16] = test system: KM12 colon
[17] = test system: HL-60(TB) leukemia
[18] = test system: IGROV1 ovarian
[19] = test system: K-562 leukemia

Measured: TGI

Cc1ccc(CC(Cc2ccc(C)cc2C(=O)O)C(=O)O)cc1 (configuration not stated)
> 100 µM: [1] | [2] | [3] | [4] | [5] | [6] | [7] | [8] | [9] | [10] | [11] | [12] | [13] | [14] | [15] | [16] | [17] | [18]

O=C(O)c1cc(O)c2c(c1)C([C@@H]1c3cccc(O)c3C(=O)c3c(O)cc(C(=O)O)cc31)c1cccc(O)c1C2=O (some centres not stated)
69.2 µM: [12]
32.2 µM: [2]
> 100 µM: [1] | [3] | [4] | [5] | [7] | [8] | [9] | [13] | [14]
44.3 µM: [16]
86.4 µM: [19]
85 µM: [6]
49.4 µM: [18]
69.4 µM: [11]
85.5 µM: [17]

Cc1cc(=O)oc2c3c(ccc12)OC(c1ccc(Br)cc1)CC3=O (configuration not stated)
59.2 µM: [8]
4.91 µM: [12]
33.1 µM: [16]
47.9 µM: [9]
31.6 µM: [15]
33.5 µM: [10]
24.5 µM: [2]
38.2 µM: [11]
31.8 µM: [14]
32.5 µM: [18]
20.5 µM: [3]
> 100 µM: [5] | [7]
19 µM: [19]
21.3 µM: [13]
30.5 µM: [1]
32 µM: [4]

O=S(=O)(NC1OCCCC1I)c1ccccc1 (configuration not stated)
> 100 µM: [1] | [2] | [3] | [4] | [5] | [6] | [7] | [19] | [8] | [9] | [10] | [11] | [12] | [13] | [14] | [16] | [18]

CCN(CC)c1ccc2cc(C(=O)Nc3nc(C45CC6CC(CC(C6)C4)C5)cs3)c(=O)oc2c1
> 100 µM: [1] | [2] | [3] | [4] | [5] | [6] | [7] | [19] | [8] | [9] | [11] | [12] | [13] | [14] | [16] | [17] | [18]

CCNc1nc2c(ncn2C2CC(O)C(COP(=O)(O)O)O2)c(=O)[nH]1 (configuration not stated)
> 100 µM: [1] | [2] | [3] | [4] | [5] | [7] | [8] | [9] | [10] | [11] | [13] | [14] | [15] | [16] | [17] | [18]

CC(C)c1cccc(C(=O)NCCN(C)C)c1[N+](=O)[O-]
> 100 µM: [1] | [2] | [3] | [4] | [5] | [7] | [19] | [8] | [9] | [10] | [11] | [12] | [13] | [15] | [16] | [17] | [18]

O=[N+]([O-])C(=C(Nc1ccccc1)Nc1ccccc1)/C(Cl)=C(\Cl)Br
29.9 µM: [13]
20.1 µM: [15]
32.1 µM: [14]
> 100 µM: [11]
38.3 µM: [10]
13.2 µM: [19]
26.2 µM: [16]
22.6 µM: [5]
13.4 µM: [12]
29.7 µM: [4] | [7]
4.41 µM: [17]
35 µM: [8]
30.7 µM: [9]

COc1ccc(N=Nc2ccc3oc(=O)c(C(=O)Nc4ccc(Cl)cc4)cc3c2)cc1
> 10 µM: [1] | [2] | [4] | [5] | [6] | [7] | [8] | [9] | [10] | [11] | [12] | [13] | [14] | [15] | [16] | [18]

COc1ccc2c(c1)CCC1=C/C(=N\NC(N)=O)CCC12C (configuration not stated)
> 10 µM: [1] | [2] | [3] | [4] | [5] | [7] | [19] | [8] | [9] | [11] | [12] | [13] | [15] | [16] | [17] | [18]

CC(=O)OC1CC[C@@]2(C)C(C1)CC(OC(C)=O)[C@@H]1C2CC(OC(C)=O)[C@]2(C)C(C(C)CC=C(c3ccc(Cl)cc3)c3ccc(Cl)cc3)CCC12 (some centres not stated)
> 100 µM: [1] | [2] | [3] | [4] | [5] | [7] | [19] | [8] | [9] | [11] | [12] | [13] | [14] | [15] | [16] | [18]
27.9 µM: [17]
